From publication PMC10002984, “Dual PTP1B/TC-PTP Inhibitors: Biological Evaluation of 3-(Hydroxymethyl)cinnoline-4(1H)-Ones” (International Journal of Molecular Sciences, 2023)
Marks after values point to notes of the source that are not given here.

Key:
[1] = tested on: PTP1B and TC-PTP in the hypothalamic arcuate nucleus; parameters: method as in PMID 30525586; conditions: administered to mice; cited from earlier work
[2] = target: T1, human recombinant TC-PTP protein (Homo sapiens, UniProt P17706); assay: Phosphatase activity assay with DiFMUP, TC-PTP inhibition; assay type: biochemical; conditions: DiFMUP 35 µM, 80 ng/mL TC-PTP, compounds 0.1–80 μM; M ± SEM (n = 24); read-out: IC50 for the inhibitory effect on TC-PTP activity
T1 construct: purchased Sigma-Aldrich SRP0218
T1 sequence (P17706 1-415): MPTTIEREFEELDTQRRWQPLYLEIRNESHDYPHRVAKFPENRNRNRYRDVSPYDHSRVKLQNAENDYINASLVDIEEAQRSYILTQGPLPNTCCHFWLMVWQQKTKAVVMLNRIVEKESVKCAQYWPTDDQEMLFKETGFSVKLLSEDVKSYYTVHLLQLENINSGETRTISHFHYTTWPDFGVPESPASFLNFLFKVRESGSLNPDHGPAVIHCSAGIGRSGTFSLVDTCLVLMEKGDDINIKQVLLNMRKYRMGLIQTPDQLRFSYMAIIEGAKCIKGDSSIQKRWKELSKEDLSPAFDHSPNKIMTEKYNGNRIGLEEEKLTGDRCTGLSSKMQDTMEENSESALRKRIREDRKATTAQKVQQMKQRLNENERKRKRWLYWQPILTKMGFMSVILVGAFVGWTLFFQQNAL
Procedure: (§1) The measurement of the activity of the phosphatases PTP1B and TC-PTP and their inhibition was carried out using 6,8-difluoro-4methylumbelliferyl phosphate (DiFMUP), as previously described. The stock solution of recombinant human PTP1B protein (#ab51277, Abcam, Cambridge, UK), at a concentration of 1 µg/µL, was prepared in 25 mM Tris–HCl (pH 7.5), 20% glycerol, 2 mM β-mercaptoethanol, 1 mm EDTA, and 1 mM DTT, and stored at −20 °C. Active human recombinant TC-PTP protein was purchased from Sigma-Aldrich (#SRP0218, Saint Louis, MO, USA) as the aqueous buffer solution at a concentration of 2.9 mg/mL, and aliquots were stored at −80 °C. The fluorogenic substrate DiFMUP (#D6567, Molecular Probes, Thermo Fisher Scientific, Waltham, MA, USA) was dissolved at a concentration of 10 mM in N,N-dimethylformamide and stored in aliquots at −20 °C. The 6,8-difluoro-7-hydroxy-4-methylcoumarin (DiFMU, #D6566, Molecular Probes, Thermo Fisher Scientific, Waltham, MA, USA) was used as a reference fluorescent standard. For the IC50 determination, the assay was carried out in black flat bottom 96-well plates using a reaction volume of 100 µL. The phosphatases (PTP1B or TC-PTP) were preincubated with the tested compounds (0.1–80 µM) in 50 mM HEPES (pH 6.9), 100 mM NaCl, 1 mM EDTA, 2 mM DTT, 0.1 mg/mL BSA for 5 min at 37 °C. The following concentrations of the compounds were studied: 0.1, 0.2, 0.5, 1, 2, 5, 10, 20, 40, and 80 μM. The reactions were initiated by the addition of the fluorogenic substrate DiFMUP and diluted in the assay buffer. Progress curves for hydrolysis reaction were obtained with 25 µM of DiFMUP for 80 ng/mL PTP1B, and 35 µM of DiFMUP for 80 ng/mL TC-PTP. Fluorescence excitation of hydrolyzed DiFMUP and the fluorescent standard DiFMU was monitored at 355 nm and emission was detected at 460 nm for 6–10 min at 30 s intervals in a Fluoroskan Ascent FL microplate reader (Thermo Electron Corporation, Vantaa, Finland). Initial velocities of the reactions were used to calculate the IC50 values using GraphPad Prism.
(§2) The data on food intake, body weight, and biochemical parameters in rats, as well as the PCR data, were analyzed using the IBM SPSS Statistics 22 software (“IBM”, Armonk, NY, USA), and the results are presented as mean ± standard error of the mean (M ± SEM). All differences are considered significant at p < 0.05. The calculation of the IC50 values of the studied inhibitors for the initial velocities of enzymatic reactions (PTP1B, TC-PTP) was carried out using the nonlinear regression analysis with GraphPad Prism 8 (“GraphPad Software, Inc.”, Boston, MA, USA). The statistical analysis was carried out using the Wilcoxon test for pairwise comparison and Dunn’s test for multiple comparisons.

Shp1 gene = assay: Gene expression in the liver of obese rats (qPCR), Shp1 gene; assay type: in vivo, rat; conditions: five-day treatment
Procedure: (§3) Further, six groups were formed: control (Con, n = 10), obesity (Ob, n = 10), obese rats with five-day treatment with compounds 1 (Ob + 1, n = 5), 2 (Ob + 2, n = 5), 3 (Ob + 3, n = 10), and 4 (Ob + 4, n = 10). All compounds were administered in DMSO (300 µL) at a daily dose of 7 mg/kg (1 and 2), 8 mg/kg (3), and 10 mg/kg (4) (i.p.), based on the results of the preliminary experiments. The used doses of compounds 1–4, in terms of the number of moles of each compound per kg of animal body weight, were equivalent. Control and obese rats received DMSO in the same volumes (300 µL), instead of the tested compounds. During the five days of the experiment, all animals were transferred to standard food and had free access to food and drinking water. […] The test was carried out on the morning of the next day after the last (fifth) injection of the compounds or DMSO, after a 10 h fast. The rest of the animals (n = 5 in each group) were anesthetized and decapitated on the last day of the experiment. The blood and liver samples were taken to measure blood glucose and hormone levels and gene expression in the liver.
The total RNA was isolated from the liver samples of rats using the “ExtractRNA Reagent” (Evrogen, Moscow, Russia), and the samples containing 1 μg of RNA were transcribed to cDNA using the random oligodeoxynucleotide primers and the “MMLV RT kit” (Evrogen, Russia). The amplification procedure was carried out in the mixture containing 10 ng of reverse transcribed product, 0.4 μM of the forward and reverse primers, and the “qPCRmix-HS SYBR + LowROX kit” (Evrogen, Russia). The amplified signals were detected using the “Applied Biosystems® 7500 Real-Time PCR System” (Life Technologies, Carlsbad, CA, USA, Thermo Fisher Scientific Inc., USA). The primers that were used to assess the expression of genes encoding the phosphatase PTP1B, TC-PTP, and SHP1 and the insulin and leptin receptors are presented in Table 4. The obtained data were calculated with the delta–delta Ct method and expressed as a fold expression, relative to the corresponding control. The expression of the gene encoding 18S RNA was used as an endogenous control.

[3] = target: T2, recombinant human PTP1B protein (Homo sapiens, UniProt P18031); assay: Phosphatase activity assay with DiFMUP, PTP1B inhibition; assay type: biochemical
T2 construct: purchased Abcam ab51277
T2 sequence (P18031 1-321 limits assumed): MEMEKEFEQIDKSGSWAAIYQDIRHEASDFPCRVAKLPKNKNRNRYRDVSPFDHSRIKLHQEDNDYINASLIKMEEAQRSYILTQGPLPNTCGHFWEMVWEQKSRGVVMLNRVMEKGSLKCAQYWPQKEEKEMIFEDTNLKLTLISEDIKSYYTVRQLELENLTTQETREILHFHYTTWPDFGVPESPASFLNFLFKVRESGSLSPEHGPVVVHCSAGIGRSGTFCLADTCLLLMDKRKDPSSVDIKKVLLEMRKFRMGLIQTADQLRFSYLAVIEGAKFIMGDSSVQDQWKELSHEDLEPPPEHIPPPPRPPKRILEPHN
Procedure: as §1, §2

[4] = tested on: male rats with HFD-induced obesity; assay: Blood glucose, insulin and leptin levels and insulin resistance index in obese rats; assay type: in vivo, male Wistar rats
Procedure: as §3
The glucose levels in the blood obtained from the tail vein were measured using a glucometer (Life Scan Johnson & Johnson, Denmark) and the test strips “One Touch Ultra” (USA). The levels of insulin and leptin in rat serum were estimated with the “Rat Insulin ELISA” (Mercodia AB, Uppsala, Sweden) and “ELISA for Leptin, Rat” (Cloud-Clone Corporation, Houston, TX, USA) kits. The GTT was carried out using a single injection of glucose (2 g/kg, i.p.) after 10 h of fasting, as described earlier. The blood glucose levels were measured before (0 min) and 15, 30, 60, and 120 min after the glucose load.

rat hypothalamic neurons = tested on: rat hypothalamic neurons; parameters: method as in doi:10.1134/S0022093018040038; conditions: cited from earlier work
diet-induced obese rats = tested on: diet-induced obese rats; parameters: method as in doi:10.1134/S0022093022060187; conditions: cited from earlier work
PTP1B = tested on: PTP1B; parameters: method as in doi:10.1134/S0022093018040038; conditions: cited from earlier work
[5] = blood, after five-day i.p. treatment, 7 mg/kg (1, 2), 8 mg/kg (3), 10 mg/kg (4), M ± SEM, n = 5
[6] = blood, before treatment (baseline), M ± SEM, n = 5

**Q.** Which “activity of both phosphatases (PTP1B, TC-PTP) in the hypothalamic arcuate nucleus” value [1] does the source give for `CC1=C(O)C(=O)C=C2C1=CC=C1[C@@]2(C)CC[C@@]2(C)[C@@H]3C[C@](C)(C(=O)O)CC[C@]3(C)CC[C@]12C` [Celastrol] here?
**A.** The value was “reduced”.

**Q.** And the “food intake and body weights” value [1]?
**A.** Its value is “significantly reducing”.

**Q.** For `O=c1c(CO)n[nH]c2ccc(F)cc12` [Compound 2], which IC50 [2] is on record?
**A.** The IC50 was 42.8 ± 9.93 µM.

**Q.** And the “expression of the Shp1 gene in the liver” value (Shp1 gene)?
**A.** Its value is “increased”.

**Q.** And the IC50 ([3]; DiFMUP 25 µM, 80 ng/mL PTP1B, compounds 0.1–80 μM, M ± SEM (n = 24), read-out: IC50 for the inhibitory effect on PTP1B activity)?
**A.** Its IC50 is 6.01 ± 0.59 µM.

**Q.** And the “selectivity for PTP1B compared to that for TC-PTP” value ([3]; from IC50 values of Table 1)?
**A.** Its value is 5–7 fold.

**Q.** What about the “Glucose, After” value [4, 5] of the same compound?
**A.** The value was 5.68 ± 0.09 ^a mM.

**Q.** And the “Insulin, After” value [4, 5]?
**A.** Its value is 1.19 ± 0.13 ^a,c ng/mL.

**Q.** And the “Leptin, After” value [4, 5]?
**A.** The value was 2.18 ± 0.22 ^a,c ng/mL.

**Q.** What about the “Glucose, Before” value [4, 6] of the same compound?
**A.** Its value is 5.82 ± 0.22 ^a mM.

**Q.** What about the “Insulin, Before” value [4, 6] of the same compound?
**A.** The value was 1.65 ± 0.17 ^a ng/mL.

**Q.** What about the “Leptin, Before” value [4, 6] of the same compound?
**A.** The value was 3.27 ± 0.38 ^a ng/mL.

**Q.** And the “IR (insulin resistance index), After” value ([4]; product of blood glucose and insulin concentrations, after five-day i.p. treatment, 7 mg/kg (1, 2), 8 mg/kg (3), 10 mg/kg (4))?
**A.** Its value is 6.79 ± 0.76 ^a arb.Units.

**Q.** What about the “IR (insulin resistance index), Before” value ([4]; product of blood glucose and insulin concentrations, before treatment (baseline)) of the same compound?
**A.** Its value is 9.68 ± 1.27 ^a arb.Units.

**Q.** For `CCOC(=O)c1ccc2[nH]nc(CO)c(=O)c2c1` [PI4, ethyl 3-(hydroxymethyl)-4-oxo-1,4-dihydrocinnoline-6-carboxylate], which “effect on components of the insulin and leptin signaling pathways (Akt, STAT3)” value (rat hypothalamic neurons) is on record?
**A.** Its value is “stimulating effect”.

**Q.** And the “body and fat weights” value (diet-induced obese rats)?
**A.** The value was “reduced”.

**Q.** And the food intake (diet-induced obese rats)?
**A.** Its food intake is “suppressed”.

**Q.** And the “activity towards PTP1B” value (PTP1B)?
**A.** Its value is “inhibitory activity”.
